One test deals with normal human T-cells. In kind it is cell-based. The conditions noted are these: for effect on DTX-K-induced TNF-α secretion: 100 μM blocker added 5 min before 100 nM DTX-K, FIG. 2K; for fold increase in TNFα secretion: FIG. 1A, DTX-K 100 nM, other blockers at highest concentration used. On the procedure: Human T-Cells: Normal human T-cells were purified from peripheral blood of healthy donors as described (Levite et al, 2000; Ganor et al, 2003; Levite t al, 1998), and the resulting cell population, containing ≧90% T-cells, was suspended in RPMI medium supplemented with 10% FCS, 1% L-Glutamine and antibiotics (Biological Industries, Bet Haemek, Israel) and maintained at 2×10^6 cells/ml (37° C./5% CO2).
Determination of TNF-α, IFN-γ, IL-10 and IL-4 by ELISA: Freshly-purified normal resting human T-cells (2×10^6/ml) were incubated in 24-well plates (Costar, Corning, N.Y.) and the various channel blockers were added. […] Cytokine levels were measured in supernatants after 24 hours for TNF-α and IFN-γ and after 72 hours for IL-10 and IL-4, by quantitative sandwich ELISA (R&D, Minneapolis, Minn.), according to the manufacturer's instructions. […]
These 12 blockers were selected on the basis of their reported ability to block most types of K^+, Na^+, Ca^2+ and Cl^− channels expressed in T-cells (Deutsch et al, 1986; Lewis et al, 1995; Lewis et al, 1988; Rader et al, 1996; Freedman et al, 1995; Koo et al, 1997; Lin et al, 1993; Ishida et al, 1993; Jensen et al, 1999; Kotturi et al, 2003; Phipps et al, 1996; Verheugen et al, 1997; Levite et al, 2000; Chandy et al, 1984). The levels of TNFα secreted into the culture media were tested 24 hours later by ELISA. For positive control, the cells were exposed to the potent phorbol ester PMA, know to activate T-cells in a non-specific manner. The results are shown in FIG. 1A and represent fold increase ±SD TNF-α secretion tested in 2-3 independent experiments. Each ion channel blocker was examined in at least two independent experiments, and at several concentrations covering its effective range (see Materials and Methods). The numbers in each figure next to each blocker represent the highest molar concentration used. Statistical analysis: *P=0.0001, 0.0005, 0.0011 and 0.0005 vs. untreated for MgTX, KTX, DTX-K and PMA, respectively (Student's t-test).

A further test deals with Kv1.1, Kv1.2 and Kv1.3. The conditions noted are these: cited from earlier work.
The subject of test [1] is cloned Kv1.1, Kv1.2 and Kv1.6 channels. The conditions noted are these: cited from earlier work.
For another test, the target named is Shaker B K^+-channels (Drosophila melanogaster, UniProt P08510). The conditions noted are these: at 100 nM concentration; cited from earlier work.
Another test has as its system ion channels. The conditions noted are these: manufacturer's data sheets and/or the literature; cited from earlier work.
The target in test [2] is Kv1.1 voltage-gated potassium channel of normal human peripheral T-cells (human) (UniProt Q09470). The experiment in a line: cell-based or functional assay.
Test [3] deals with T1, Kv1.1 (Homo sapiens, UniProt Q09470). The conditions noted are these: Gutman et al, 2003; cited from earlier work.
Test [4] has as its target T1, Kv1.1. The conditions noted are these: cited from earlier work.
For a further test, the target named is Kv1.2 (Homo sapiens, UniProt P16389). The conditions noted are these: cited from earlier work.
Another test has as its target T2, Kv1.3 (Homo sapiens, UniProt P22001).
T2 construct: host or cells: Xenopus laevis oocytes
The conditions noted are these: cited from earlier work.

Test [5] deals with melanoma in-transit metastases. The conditions noted are these: ILP; cited from earlier work.
For a further test, the system named is high-grade STS. The conditions noted are these: cited from earlier work.
In test [6] the test system is host ED1-positive cells in the liver. The conditions noted are these: administration of TNF-α into the brain; Campbell et al, 2005; cited from earlier work.
Setting [7] is: 24 hours, several effective concentrations, no other stimulus.
Setting [8] is: multicenter trials in Europe, ILP for STS.

Like-named read-outs stand apart in the source and are kept apart here. No end group written: not given here.

T1 sequence (Q09470 whole entry): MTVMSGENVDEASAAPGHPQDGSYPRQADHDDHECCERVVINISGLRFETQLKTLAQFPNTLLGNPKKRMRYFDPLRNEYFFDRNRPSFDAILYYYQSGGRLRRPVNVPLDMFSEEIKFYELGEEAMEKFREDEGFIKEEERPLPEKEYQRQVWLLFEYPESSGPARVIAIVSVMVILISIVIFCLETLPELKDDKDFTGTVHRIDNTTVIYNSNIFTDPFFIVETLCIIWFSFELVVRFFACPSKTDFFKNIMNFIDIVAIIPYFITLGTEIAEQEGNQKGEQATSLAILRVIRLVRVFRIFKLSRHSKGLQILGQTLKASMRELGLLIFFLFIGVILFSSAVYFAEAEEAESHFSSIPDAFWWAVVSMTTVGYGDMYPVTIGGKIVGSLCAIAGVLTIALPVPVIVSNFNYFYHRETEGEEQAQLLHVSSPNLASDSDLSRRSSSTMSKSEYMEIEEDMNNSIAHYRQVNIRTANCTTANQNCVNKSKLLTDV
T2 sequence (P22001 whole entry): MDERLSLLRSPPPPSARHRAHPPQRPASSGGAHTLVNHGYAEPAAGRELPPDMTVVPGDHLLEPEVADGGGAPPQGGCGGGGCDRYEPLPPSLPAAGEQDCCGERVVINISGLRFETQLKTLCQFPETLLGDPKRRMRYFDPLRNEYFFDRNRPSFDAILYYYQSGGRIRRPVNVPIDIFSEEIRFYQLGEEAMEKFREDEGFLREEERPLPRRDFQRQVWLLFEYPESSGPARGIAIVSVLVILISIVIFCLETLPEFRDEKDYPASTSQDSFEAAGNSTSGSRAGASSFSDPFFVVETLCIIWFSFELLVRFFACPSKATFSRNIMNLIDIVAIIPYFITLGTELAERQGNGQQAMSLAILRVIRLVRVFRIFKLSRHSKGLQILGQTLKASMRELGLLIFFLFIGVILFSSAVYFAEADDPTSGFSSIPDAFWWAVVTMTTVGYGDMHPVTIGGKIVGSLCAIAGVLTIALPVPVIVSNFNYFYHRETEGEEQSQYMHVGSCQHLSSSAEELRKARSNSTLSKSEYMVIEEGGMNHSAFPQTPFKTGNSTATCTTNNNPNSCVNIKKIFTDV
Sequence of Kv1.1 voltage-gated potassium channel of normal human peripheral T-cells (human) (Q09470 whole entry): as the sequence (Q09470 whole entry) above
Sequence of Shaker B K^+-channels (P08510 whole entry): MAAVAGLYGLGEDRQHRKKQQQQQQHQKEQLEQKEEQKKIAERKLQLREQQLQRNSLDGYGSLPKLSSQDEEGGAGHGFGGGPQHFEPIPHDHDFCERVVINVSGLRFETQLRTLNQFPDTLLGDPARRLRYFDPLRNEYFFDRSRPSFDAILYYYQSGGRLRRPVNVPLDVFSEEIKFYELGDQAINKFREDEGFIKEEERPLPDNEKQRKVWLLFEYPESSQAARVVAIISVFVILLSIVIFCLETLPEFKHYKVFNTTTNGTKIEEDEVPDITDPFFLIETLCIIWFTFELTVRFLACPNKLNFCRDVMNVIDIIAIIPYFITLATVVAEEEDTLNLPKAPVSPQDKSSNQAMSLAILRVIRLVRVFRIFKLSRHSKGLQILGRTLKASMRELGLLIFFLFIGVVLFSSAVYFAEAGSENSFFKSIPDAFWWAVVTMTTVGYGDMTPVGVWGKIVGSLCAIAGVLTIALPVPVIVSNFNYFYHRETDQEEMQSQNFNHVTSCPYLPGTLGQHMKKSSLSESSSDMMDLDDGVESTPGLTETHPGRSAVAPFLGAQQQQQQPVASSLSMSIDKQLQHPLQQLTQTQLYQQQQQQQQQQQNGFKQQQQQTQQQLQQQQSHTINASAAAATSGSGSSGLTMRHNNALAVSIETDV

For `Nc1ccncc1` [4-AP, 4-Aminopyridine], the TNF-α up-regulation entry with normal human T-cells (setting [7]) is “no significant TNF-α up-regulation”. Take “rHongotoxin-1: Centruroides limbatus toxin, blocks Kv1.1, Kv1.2 and Kv1.3 (TVIDVKCTSPKQCLPPCKAQFGIRAGAKCMNGKCKCYPH; ends and bridges not checked; cysteine pairing not given here; UniProt P59847 1-39, looked up)”: the “blocking concentration, Kv1.1, Kv1.2 and Kv1.3” value with Kv1.1, Kv1.2 and Kv1.3 is 0.1 to 0.2 pM. For `CC[N+](CC)(CC)CC` [TEA, Tetraethylammonium], in the test on normal human T-cells, the TNF-α up-regulation entry was “no significant TNF-α up-regulation”. Turning to Alpha-dendrotoxin, the “concentration range blocking cloned Kv1.1, Kv1.2 and Kv1.6 channels” value in test [1] was “low nanomolar range”.

Consider “Pi4: 38-amino acid long peptide from the venom of the scorpion Pandinus imperator (IEAIRCGGSRDCYRPCQKRTGCPNAKCINKTCKCYGCS; UniProt P58498 1-38, looked up)”, for which the “block of Shaker B K^+-channels” value with Shaker B K^+-channels was “blocks completely and reversibly”. As to `O=C(O)c1cc([N+](=O)[O-])ccc1NCCCc1ccccc1` [NPPB], in the test on normal human T-cells (24 hours), the “effect on DTX-K-induced TNF-α secretion” value was “no such interrupting effect”. Besides, in the test with normal human T-cells (setting [7]), the TNF-α up-regulation result is “no significant TNF-α up-regulation”. Besides, the effective concentrations with ion channels is 100 to 200 µM.

Turning to “rMargatoxin (from UniProt P40755 1-39) (peptide)”, the fold increase in TNFα secretion by human T-cells (ELISA, 24 h) in test [2] is 6.5 fold. As to `NC1=N[C@H](O)[C@H]2[C@H]3O[C@]4(O)O[C@@H]([C@@H](O)[C@@]2(N1)[C@@H]4O)[C@]3(O)CO` [TTX, Tetrodotoxin], the TNF-α up-regulation result in the test with normal human T-cells is recorded as “no significant TNF-α up-regulation”. On the same count and under the same terms, the same measure for `Clc1ccccc1C(c1ccccc1)(c1ccccc1)n1ccnc1` [CLT, Clotrimazole]: “no significant TNF-α up-regulation”.

The term Ki denotes the dissociation constant of the complex between target and ligand, obtained from inhibition or displacement. Take “Kaliotoxin (GVEINVKCSGSPQCLKPCKDAGMRFGKCMNRKCHCTPK) [KTX]”: the “fold increase in TNFα secretion” value in the test on normal human T-cells (24 hours, no other stimulus) is listed as 15.1 fold increase. In the test with Kv1.1 [3], the inhibition constant (Ki) was 0.02 µM. The Kd in the test with Kv1.1 [4] (bath application to Xenopus laevis oocytes, Mourre et al, 1999, read-out: K(d), recombinant Kv1.1) was 0.0015 µM; in the test with Kv1.2 (bath application to Xenopus laevis oocytes, Mourre et al, 1999, read-out: K(d), recombinant Kv1.2), 0.025 µM; with Kv1.3 (bath application to Xenopus laevis oocytes, Mourre et al, 1999, read-out: K(d), recombinant Kv1.3), 0.0001 µM. Also, the effective concentrations in the test on ion channels is 0.001 to 0.1 µM. On to “rMargatoxin (TIINVKCTSPKQCLPPCKAQFGQSAGAKCMNGKCKCYPH) [MgTX]”, for which the “fold increase in TNFα secretion” value with normal human T-cells (24 hours, no other stimulus) came out at 6.5 fold increase.

Turning to rCharybdotoxin [CTX], in the test with normal human T-cells (setting [7]), the TNF-α up-regulation entry is given as “no significant TNF-α up-regulation”.

For `N[C@@H](Cc1ccc(N(CCCl)CCCl)cc1)C(=O)O` [melphalan], in test [5], the “complete response (CR) rate” value is on record as about 50% and the overall response rate is recorded as 80%. As for TNF-α, the “major response rates, median” value in the test on high-grade STS (largest single-center studies in STS, range 58%-91%) is recorded as 76%. Further, the “median limb salvage rate” value in the test on high-grade STS (largest single-center studies in STS, range 58%-97%) is listed as 84%. Also, in the test with high-grade STS (setting [8]), the “median limb salvage rate” value was 82% and the overall response rate is given as 76%. In addition, in test [5], the “complete response (CR) rate” value is listed as 70%-90% and the overall response rate is recorded as 95%-100%. The “increase in the number of host ED1-positive cells accumulated in the liver” value in test [6] is reported as “up to two fold increase”.

Usually IC50 stands for the concentration at which inhibition is half-maximal. On to “maurotoxins: natural and synthetic maurotoxins, four disulfide bridges scorpion toxin (VSCTGSKDCYAPCRKQTGCPNAKCINKSCKCYGC; disulfide (positions not given here); also: four disulfide bridges, pairing not given here; UniProt P80719 1-34, looked up)”, for which the IC50 is about 0.04 µM in the test with Kv1.1 [4] (Xenopus oocytes, Rochat et al, 1998, read-out: half-effects (IC50), Kv1.1); about 0.0008 µM with Kv1.2 (Xenopus oocytes, Rochat et al, 1998, read-out: half-effects (IC50), Kv1.2); about 0.15 µM with Kv1.3 (Xenopus oocytes, Rochat et al, 1998, read-out: half-effects (IC50), Kv1.3). In the case of `C=C[C@H]1C[N@@]2CC[C@H]1C[C@H]2[C@H](O)c1ccnc2ccc(OC)cc12` [Quinine], the TNF-α up-regulation entry with normal human T-cells (setting [7]) is reported as “no significant TNF-α up-regulation”. In the test on ion channels, the effective concentrations is 1 to 10 µM. On to `N#Cc1cc2[nH]c(=O)c(=O)[nH]c2cc1[N+](=O)[O-]` [CNQX], for which the TNF-α up-regulation entry in the test on normal human T-cells (setting [7]) is recorded as “no significant TNF-α up-regulation”.

In the case of `COC(=O)C1=C(C)NC(C)=C([N+](=O)[O-])C1c1ccccc1C(F)(F)F` (stereo not drawn) [+Bay K, R-(+)-Bay K8644], in the test on normal human T-cells (24 hours), the “effect on DTX-K-induced TNF-α secretion” value was “prevented completely”. The TNF-α up-regulation result in the test with normal human T-cells (setting [7]) is on record as “no significant TNF-α up-regulation”. Consider `CCCCCCCCCCCCCC(=O)O[C@@H]1[C@@H](C)[C@@]2(O)[C@@H](C=C(CO)C[C@]3(O)C(=O)C(C)=C[C@@H]23)[C@@H]2C(C)(C)[C@]12OC(C)=O` [PMA], for which, in the test with normal human T-cells (24 hours, no other stimulus), the “fold increase in TNFα secretion” value was found to be 41.3 fold increase. “Kaliotoxin (from UniProt P24662 1-38) (peptide)”: in test [2], the fold increase in TNFα secretion by human T-cells (ELISA, 24 h) was 15.1 fold.

The values are drawn from US20090022739A1, “MODULATING THE KV1.1 VOLTAGE-GATED POTASSIUM CHANNEL IN T-CELLS FOR REGULATING THE […] AND SECRETION OF TUMOR NECROSIS FACTOR ALPHA (tnf-ALPHA) AND TREATING HUMAN DISEASE OR INJURIES MEDIATED BY […] HIGH OR LOW LEVELS OF TNF-ALPHA” (priority 2005, published 2009).
